For data set [1], the system named is IL5. The experiment in a line: IL5 inhibition. Type of data set: cell-based.
Data set [2] concerns protein secretion. The experiment in a line: Non-selective inhibition at protein secretion. Type of data set: cell-based. The following applies: Homo sapiens; HepG2 cells; read-out: IC50-C non-selective inhibition at protein secretion. The source says: (§1) PCSK9 expression is actively regulated at transcription levels. Statins are known to stimulate PCSK9 transcription which in turn curbs the efficacy of statins in LDL lowering in humans. […] A number of primary and secondary assays to measure PCSK9 secretion/modulation in response to putative active agents are known. Primary assays: PCSK9 Secretion HepG2 SP/CRC (% Inhibition/IC50); PCSK9 Secretion Cell Health HepG2 SP/CRC (% Inhibition/IC50); and Metabolic Luciferase Reporter Assay CRC (IC50). Secondary assays: PCSK9 ELISA HepG2 CRC (IC50); ApoA-1 ELISA HepG2 CRC (IC50), and Profiling Biochemical Activity—Kinase Panel SP/CRC (% Efficacy/IC50). All of these assays are publicly accessible via Lilly's Open Innovation Drug Discovery program (as well as other sources).

Data set [3] can be described thus: Cytotoxicity (PCSK9 Secretion Cell Health HepG2). The format is cell-based. The following applies: human, HepG2 cells; read-out: IC50-B cytotoxicity.
From the text: as §1

Data set [4] concerns IL17 secretion. The experiment in a line: IL17 secretion from human PBMCs stimulated with IL23, anti-CD3 and anti-CD28. Conditions: PBMC. Type of data set: cell-based. The source says: The present compounds are thus useful to treat autoimmune disorders such as (but not limited to) arthritis, multiple sclerosis, psoriasis, and inflammatory bowel disease. The IL-17 pathway plays an essential pathological role in many autoimmune diseases including arthritis, multiple sclerosis, psoriasis, and inflammatory bowel disease. IL-17 is produced and secreted by at least two classes of lymphocytes, δγ and CD4+ T cells (Th17). The orphan nuclear receptor RORg is required for the differentiation of Th17 cells where over-expression in human and rodent T cells induces transcripts found in Th17 cells encoding key cytokines for the IL23 receptor and chemokines for the CCR6 receptor. In addition to RORg, recent global analysis of transcription factors has highlighted the molecular complexity of the Th17 differentiation program.
Active compounds are identified by measuring their ability to inhibitor IL17 secretion from human peripheral blood mononuclear cells (PBMCs) following stimulation of memory T cells by IL23, anti-CD3, and anti-CD28. See M. Ciofani, et al (2012) “A validated regulatory network for Th17 cell specification.” Cell, 151:289-303.

In data set [5] the test system is PCSK9 secretion. The experiment in a line: PCSK9 secretion in HepG2 cells. Type of data set: cell-based. Conditions: Homo sapiens.
From the text: as §1

Data set [6] deals with GLP-1 secretion. The experiment in a line: GLP-1 secretion (ELISA). The format is cell-based. The source says:
Similarly, the present indole compounds also modify the activity of glucagon-like peptide 1 (GLP-1), which plays a critical role in hyperglycemia and diabetes in humans. Glucagon-like peptide 1 (GLP-1) is derived from transcription of the proglucagon gene followed by post-translational modifications of proglucagon to the following biologically active peptides: GLP-1 (7-37) and GLP-1 (7-36)-NH2. GLP-1 secretion by ileal L cells is dependent on the presence of nutrients in the lumen of the small intestine. GLP-1 is a potent anti-hyperglycemic hormone that induces glucose-dependent insulin secretion and suppresses glucagon secretion.
GLP-1 secretion is measured using an ELISA designed to detect the appropriate forms of GLP-1 secreted from these cells. See, for example, Gareth E. Kim and Patricia L. Brubaker (December 2006) “Glucagon-Like Peptide 1 Secretion by the L-Cell,” Diabetes: 55 (supplement 2).

The mark [7] stands for this setting: HepG2 cells, read-out: IC50-A inhibition of PCSK9 secretion.

In US10174008B2, “Synthesis of cyclopropyl indoles and cyclohepta[B]indoles, pharmaceutical compositions containing them and method of using them” (WISCONSIN ALUMNI RESEARCH FOUNDATION, priority 2014, dated 2019) one finds IC50, melting point and EC50 data, which are given here for six compounds.

Where two headings read alike, the source gives them in different places.

What is called IC50 is the midpoint of a concentration-inhibition curve. In general, melting point refers to the temperature, or range, at which the solid turns liquid. Consider `COc1ccc(C2C[C@@H]2c2c(C)c3ccccc3n2S(=O)(=O)c2ccc(C)cc2)cc1` (stereo in doubt) [8a, 2-(2-(4-methoxyphenyl)cyclopropyl)-3-methyl-1-tosyl-1H-indole], for which the melting point was 155 to 156 °C. The compound also had an IC50 in data set [1] of over 30 µM. Further, the concentration for half-maximal inhibition (IC50) in data set [2] is over 50 µM. In addition, the 50% inhibitory concentration (IC50) in data set [3] is over 50 µM. The compound also returned a half-inhibitory concentration (IC50) in data set [4] of 10 µM. Besides, in data set [5] (HepG2, read-out: PCSK9, IC50), the IC50 is 1.8 µM. Further, the concentration for half-maximal inhibition (IC50) in data set [5] (setting [7]) turned out to be 1.8 µM.
The compound `Cc1ccc(S(=O)(=O)n2c([C@@H]3CC3c3ccccc3)c(C)c3ccccc32)cc1` (stereo in doubt) [8b, 3-methyl-2-(2-phenylcyclopropyl)-1-tosyl-1H-indole] came in with a melting point of 156 to 157 °C. The half-maximal inhibitory concentration (IC50) in data set [5] (HepG2, read-out: PCSK9, IC50) was 21 µM. The IC50 in data set [5] (setting [7]) amounted to 21 µM.
In general, EC50 refers to the concentration at which the effect is half-maximal. As to `Cc1ccc(S(=O)(=O)n2c(C3C[C@]3(CO)c3ccccc3)c(C)c3ccccc32)cc1` (stereo in doubt) [8i, (2-(3-methyl-1-tosyl-1H-indol-2-yl)-1-phenylcyclopropyl)methanol], the melting point fell in the range of 57 to 58 °C. Moreover, the midpoint of the response in data set [6], the EC50, lay at 7.3 µM.
For `Cc1ccc(S(=O)(=O)n2c([C@H]3C[C@H]3c3ccc4c(c3)OCO4)c(C)c3ccccc32)cc1` [8f, 2-(2-(benzo[d][1,3]dioxol-5-yl)cyclopropyl)-3-methyl-1-tosyl-1H-indole], the melting point fell in the range of 106 to 107 °C. Also, the concentration for half-maximal inhibition (IC50) in data set [1] was over 30 µM. The half-inhibitory concentration (IC50) in data set [2] is over 50 µM. For the same compound, the 50% inhibitory concentration (IC50) in data set [3] was over 50 µM. Also, the IC50 in data set [4] was 7.3 µM. Further, the IC50 in data set [5] (HepG2, read-out: PCSK9, IC50) worked out at 9.9 µM. In addition, the concentration for half-maximal inhibition (IC50) in data set [5] (setting [7]) came to 9.9 µM.
Turning to `CCc1c(C2CC2c2ccc(OC)cc2)n(S(=O)(=O)c2ccc(C)cc2)c2ccccc12` (stereo not shown) [10g, 3-ethyl-2-(2-(4-methoxyphenyl)cyclopropyl)-1-tosyl-1H-indole], the concentration for half-maximal inhibition (IC50) is over 50 µM in data set [2]; over 50 µM in data set [3]; 0.7 µM in data set [5] (HepG2, read-out: PCSK9, IC50); 0.7 µM in data set [5] (setting [7]).
The compound `COc1ccc(C2C=CCCc3c2c2ccccc2n3S(=O)(=O)c2ccc(C)cc2)cc1` (stereo not shown) [compound 14, (Z)-10-(4-methoxyphenyl)-5-tosyl-5,6,7,10-tetrahydrocyclohepta[b]indole] returned a melting point of 75 to 76 °C. Moreover, in data set [6], the EC50 came out at 28.4 µM.
